According to US12023308B2, “Agents for reversing toxic proteinopathies” (THE BROAD INSTITUTE, INC., priority 2019, dated 2024):
Entries after “also recorded” stand apart in the source; their conditions may differ.

Experiments:
[1] = Liver microsomes stability; type: in vitro ADME
Description: Stability was determined at 37° C. at 1 hour in liver microsomes. Each compound was prepared in duplicate at 1 μM in liver microsomes diluted 50/50 (v/v) with PBS pH 7.4. After addition of compounds to microsome mixture, the plate was sealed and vortexed and 100 µL of each sample was added to 3004 acetonitrile (with internal standard). Assay plate was incubated at 37° C. for 1 hr with a 350 rpm orbital shake, and following the hour 1004 of each sample was added to 300 μL acetonitrile (with internal standard). After quenching, samples were refrigerated for at least 1 hour. The samples were centrifuged (32×G) to pellet precipitated particulates and an aliquot of supernatant was diluted 50/50 (v/v) with water. The resulting solution was analyzed by UPLC-MS/MS with compounds detected by MRM detection on a triple quadrupole mass spectrometer. The compound peak areas in the 0 and 1 hour samples, -NADPH sample, and no compound control sample were compared to determine a percent remaining. Percent remaining in microsomes was calculated through the following equation: % remaining=[area (1 hr)/area (0 hr)]×100. (LC System, Waters Acquity I-Class; MS System, AB Sciex Triple Quad 4500; Column, Waters Acquity UPLC BEH C18, 1.7 μm, 2.1×50 mm; Mobile Phase A, Water with 0.1% formic acid; Mobile Phase B, Acetonitrile with 0.1% formic acid; Flow Rate, 0.90 mL/min; Column Temperature, 55° C.).

Nischarin = target: T1, Nischarin (Homo sapiens, UniProt Q9Y2I1); experiment: Cellular thermal shift assay (CETSA) for Nischarin in P cells; type: binding; settings: 5 μM, 1 hour
T1 construct: Densitometric analysis of Nischarin abundance after treatment of P cells with BRD-4780 (5 μM, 1 hour) or DMSO; endogenous in cells; host or cells: P cells
Description: (§1) CETSAs were performed as previously described (Jafari et al., 2014; Reinhard et al., 2015). In brief, P cells were treated in the presence or absence of BRD-4780 for 1 hr, harvested (trypsinized), washed in PBS, resuspended in PBS (containing protease inhibitors) and distributed in 0.2 ml PCR tubes (100 μl; 600,000 cells). Cells were incubated at their designated temperatures for 3 min, then at 25° C. for 3 min and lysed by the addition of 1% NP-40. Immediately thereafter, samples were snap frozen and thawed using thermal cycler set at 25° C. Samples were spun at 20′000×g for 20 min (4° C.) to remove precipitated protein and the supernatant was analyzed by Western blot to examine the TMED9/Nischarin thermal stability.

P cells = experiment: P cell viability upon THP treatment (live imaging, rescue); type: cell-based, human; settings: P cells
Description: To study apoptosis and cell death in N and P cells, 384 well Cell Carrier Ultra plates (6057308, Perkin Elmer), pre-coated with 0.25 mg/mL Synthemax II SC Substrate (3535, Corning) were used. […] CellEvent Caspase-3/7 Green Detection Reagent (C10423, Thermo Fisher Scientific®) and DRAQ7 (DR71000, Biostatus) were used at 1:5000 to monitor apoptosis and cell death respectively. Cells were imaged daily during 4 days to monitor viability and image analysis was performed as described below. For rescue experiments, P cells were plated on 96 well Cell Carrier Ultra microplates (6055302, Perkin Elmer) at 30,000 cells/well and cultured for 24 hr. BRD-4780 (5 μM) was applied as a pretreatment for 48 hr prior to thapsigargin exposure and throughout the experiment. Thapsigargin was applied at increasing doses and the plates were imaged daily thereafter.
For the measurement of P cell rescue from THP-induced cell death by BRD-4780 (FIGS. 3I and 3J), no dyes were added to avoid any influence on cell growth. Digital phase contrast images were used for cell identification and count, and autofluorescence in the far-red channel was used for detection of dead cells. Cells with no autofluorescence were identified and calculated as live cell.
P cells were seeded 12 hr prior to profiling compound treatment at a density of 12,000 cells/well in 384 well Cell Carrier Ultra plates (6057308, Perkin Elmer), pre-coated with 0.25 mg/mL Synthemax II SC Substrate (3535, Corning). After 24 hr, CellEvent Caspase-3/7 Green Detection Reagent (C10423, Thermo Fisher Scientific®) and DRAQ7 (DR71000, Biostatus) were added at 1:5000 final dilution in the presence or absence of thapsigargin (100 nM). Cells were imaged daily during 7 days to monitor viability. Image acquisition and analysis was done as described above and viability was assessed as fraction of live cells at day 5 of thapsigargin treatment, and at the day 6 for DMSO.

MUC1-fs = experiment: BRD-4780 treatment in fs/+ knock-in mice, kidney MUC1-fs by IF and Western blot; type: in vivo, mouse
Description: Mice were anesthetized with 3 L/min 02 mixed with 3% isoflurane using the Combi-Vet® system (Rothacher Medical, Bern, Switzerland) for 5 min. Mouse kidneys were removed, sagittally cut to half and rapidly frozen in Tissue-Tek® O.C.T. Compound, Sakura® Finetek (OCT) (25608-930, VWR) using dry ice and 100% ethanol. Five […] sagittal cryosections (CM1950, Leica) were thaw mounted on microscope slides (Fisherbrand™ Superfrost™ Plus, Fisher Scientific) and kept in the cryostat (at −26° C.) for the duration of the sectioning process. Sections were immersion-fixed for 10 min in 4% PFA (15710, Electron Microscopy Sciences), then washed in PBS. The slides were then subjected to antigen retrieval by immersion in 10 mM citric acid buffer (pH=6), for 10 minutes at 95° C. […]
MUC1-fs and MUC1-wt mean intensities were calculated in kidney sections of mice treated with either vehicle or BRD-4780 (FIGS. 4A, 4B and 12A). As MUC1-fs and MUC1-wt levels varied in different kidney regions, and as sections might contain different portions of the different kidney regions, the levels of these proteins were analyzed only in NCC-positive distal convoluted tubules. […] Each fluorescent channel intensity was measured and a threshold was set for the identification of NCC positive cells. MUC1-fs and MUC1-wt levels were then calculated only in the NCC positive cells. […]

UPR = experiment: RNA-Seq analysis of UPR branch activation in P cells; type: cell-based, human; settings: BRD-4780 1 μM, THP 100 nM
Description: For RNA-seq experiments, N and P cells were plated in 12-well plates at 200,000 cells/well. Subsequently, 1 μM of BRD-4780 or DMSO were applied for 24 hr followed by 12 hr exposure to 100 nM of thapsigargin (THP) or DMSO for control. At the end of the experiment, RNA was extracted from treated cells and sequencing was performed as described below.
UPR branch activation analysis is presented as boxplots. Each box of the boxplot consists of genes comprising an individual UPR branch (Adamson et al., 2016). The expression of each gene in the group is plotted as mean of the scaled expression profiles obtained from three replicates.

TMED9 = target: T2, TMED9 (Homo sapiens, UniProt Q9BVK6); experiment: Cellular thermal shift assay (CETSA) for TMED9 in P cells; type: binding; settings: 5 μM, 1 hour
T2 construct: TMED9 abundance in P cells at escalating temperatures (as indicated) with or without treatment with BRD-4780; endogenous in cells; host or cells: P cells (intact cells treated, then heated and lysed)
T2 sequence (Q9BVK6 38-235): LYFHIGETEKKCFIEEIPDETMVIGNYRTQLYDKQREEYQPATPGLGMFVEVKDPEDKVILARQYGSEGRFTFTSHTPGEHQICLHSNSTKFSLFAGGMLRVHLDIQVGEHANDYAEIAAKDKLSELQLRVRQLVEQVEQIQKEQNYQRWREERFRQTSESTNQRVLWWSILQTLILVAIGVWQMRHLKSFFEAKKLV
Description: as §1

T1 sequence (Q9Y2I1 whole entry): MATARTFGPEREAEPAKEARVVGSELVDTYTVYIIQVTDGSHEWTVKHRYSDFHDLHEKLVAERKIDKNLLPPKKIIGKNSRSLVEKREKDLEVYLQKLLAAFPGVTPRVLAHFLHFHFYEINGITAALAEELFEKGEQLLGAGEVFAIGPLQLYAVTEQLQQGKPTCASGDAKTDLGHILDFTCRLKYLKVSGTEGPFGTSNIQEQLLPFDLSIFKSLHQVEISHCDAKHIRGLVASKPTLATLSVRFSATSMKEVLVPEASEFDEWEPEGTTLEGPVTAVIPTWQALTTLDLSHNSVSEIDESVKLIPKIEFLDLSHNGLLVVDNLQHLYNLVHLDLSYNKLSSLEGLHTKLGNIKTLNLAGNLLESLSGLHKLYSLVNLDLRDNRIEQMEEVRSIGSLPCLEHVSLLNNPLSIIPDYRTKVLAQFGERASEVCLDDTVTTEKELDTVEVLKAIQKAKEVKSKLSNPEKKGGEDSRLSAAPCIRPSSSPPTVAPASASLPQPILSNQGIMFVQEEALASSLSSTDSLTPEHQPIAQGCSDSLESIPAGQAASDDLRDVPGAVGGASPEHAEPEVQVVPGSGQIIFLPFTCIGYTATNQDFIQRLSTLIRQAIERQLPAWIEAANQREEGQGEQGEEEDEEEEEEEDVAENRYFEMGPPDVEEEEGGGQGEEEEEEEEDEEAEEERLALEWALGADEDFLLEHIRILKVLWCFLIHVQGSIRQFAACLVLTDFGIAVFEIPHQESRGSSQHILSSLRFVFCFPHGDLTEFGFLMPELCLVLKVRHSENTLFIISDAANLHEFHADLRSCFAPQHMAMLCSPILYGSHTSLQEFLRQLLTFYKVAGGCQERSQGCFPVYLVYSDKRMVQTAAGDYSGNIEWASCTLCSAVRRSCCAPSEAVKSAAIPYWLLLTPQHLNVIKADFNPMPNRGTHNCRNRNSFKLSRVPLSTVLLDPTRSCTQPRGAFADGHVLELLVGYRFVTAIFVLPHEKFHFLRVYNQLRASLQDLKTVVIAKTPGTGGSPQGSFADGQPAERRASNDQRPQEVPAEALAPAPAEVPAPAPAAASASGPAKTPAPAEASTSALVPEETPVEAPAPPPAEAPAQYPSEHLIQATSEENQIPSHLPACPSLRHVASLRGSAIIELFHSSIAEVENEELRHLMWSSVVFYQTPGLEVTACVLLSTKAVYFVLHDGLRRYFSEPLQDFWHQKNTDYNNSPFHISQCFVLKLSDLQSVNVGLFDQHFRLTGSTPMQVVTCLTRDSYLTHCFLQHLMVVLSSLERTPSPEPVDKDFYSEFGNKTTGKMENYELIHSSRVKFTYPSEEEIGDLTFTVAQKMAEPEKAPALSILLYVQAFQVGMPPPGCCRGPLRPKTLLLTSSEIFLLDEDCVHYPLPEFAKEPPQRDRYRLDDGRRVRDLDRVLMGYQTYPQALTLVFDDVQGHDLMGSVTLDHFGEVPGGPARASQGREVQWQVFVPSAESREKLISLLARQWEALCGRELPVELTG

CC(C)[C@@H]1[C@H]2CC[C@H](C2)[C@H]1N (racemic) [BRD-4780, 2-endo-amino-3-exo-isopropylbicyclo[2.2.1]heptane]
microsomal stability [1]: good microsomal and plasma stability
Nischarin thermal stability / engagement (CETSA) (Nischarin): no evidence indicative of direct engagement; also recorded: did not bind Nischarin
rescue from THP-induced cell death (P cells): rescued P cells from THP-induced cell death
MUC1-fs in kidney tissue at highest dose (MUC1-fs; fs/+ mice, 50 mg/kg daily oral gavage, 7 days): nearly indistinguishable from control (+/+) mouse kidneys
MUC1-fs protein in mouse kidneys (MUC1-fs; mouse, in vivo): dose-dependent removal of mutant MUC1-fs protein
UPR activation (UPR): significantly reduced UPR activation
TMED9 thermal stability (CETSA) (TMED9): shifted the TMED9 heat denaturation curve to significantly higher temperatures; also recorded: Higher abundance of TMED9 was noted at temperatures >47 °C
